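Method: 48-hour compound exposure of cells in 96-well plates, five concentrations, linear interpolation of endpoints. GI50 is the concentration that inhibits growth by half.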 Active and inactive are the calls of the source. Rule as the data show it: active = GI50 up to about 1.1 µM and inactive = higher.
Experiments:
Experiment in all cases: NCI anticancer screen, dose series, 48 h
A549 = test system: A549
ACHN = test system: ACHN
DU-145 = test system: DU-145
HL-60 = test system: HL-60
HOP-62 = test system: HOP-62
HOP-92 = test system: HOP-92
HT-29 = test system: HT-29
KM12 = test system: KM12
LOX IMVI = test system: LOX IMVI
MDA-MB-435 = test system: MDA-MB-435
Malme-3M = test system: Malme-3M
NCI-H460 = test system: NCI-H460
NCI/ADR-RES = test system: NCI/ADR-RES
OVCAR-4 = test system: OVCAR-4
RPMI-8226 = test system: RPMI-8226
SF-268 = test system: SF-268
SK-OV-3 = test system: SK-OV-3
SN12C = test system: SN12C
SW-620 = test system: SW-620
UO-31 = test system: UO-31

Measured: GI50

COC(=O)c1nc2n(n1)-c1ccccc1C(=O)N(Cc1ccccc1)C2
inactive: A549 > 100 µM | ACHN > 100 µM | DU-145 > 100 µM | HL-60 > 100 µM | HOP-62 > 100 µM | HOP-92 > 100 µM | HT-29 > 100 µM | KM12 > 100 µM | LOX IMVI > 100 µM | MDA-MB-435 > 100 µM | Malme-3M > 100 µM | NCI-H460 > 100 µM | NCI/ADR-RES > 100 µM | OVCAR-4 > 100 µM | RPMI-8226 > 100 µM | SF-268 > 100 µM | SK-OV-3 > 100 µM | SN12C > 100 µM | SW-620 > 100 µM | UO-31 > 100 µM

COCC12CCC(OC)C34C5CC6(O)C(OC)C=C(C5C6OC(=O)c5ccccc5)C(C(OC)C13)C4N(C)C2 (configuration not stated)
inactive: A549 > 100 µM | ACHN > 100 µM | DU-145 > 100 µM | HL-60 > 100 µM | HOP-62 > 100 µM | HOP-92 > 100 µM | HT-29 > 100 µM | KM12 > 100 µM | LOX IMVI > 100 µM | MDA-MB-435 > 100 µM | Malme-3M > 100 µM | NCI-H460 > 100 µM | NCI/ADR-RES > 100 µM | OVCAR-4 > 100 µM | RPMI-8226 > 100 µM | SF-268 > 100 µM | SK-OV-3 > 100 µM | SN12C > 100 µM | SW-620 > 100 µM | UO-31 > 100 µM

N#CC(=S)Nc1cccc(Cl)c1
inactive: A549 23.8 µM | ACHN 26.2 µM | DU-145 50.8 µM | HL-60 33.2 µM | HOP-62 43.8 µM | HOP-92 35.6 µM | HT-29 19.5 µM | KM12 24.8 µM | LOX IMVI 39.3 µM | MDA-MB-435 33.1 µM | Malme-3M 30.3 µM | NCI-H460 19.9 µM | NCI/ADR-RES 30.7 µM | OVCAR-4 42.4 µM | RPMI-8226 5.38 µM | SF-268 40.5 µM | SK-OV-3 33.3 µM | SN12C 44.1 µM | SW-620 53.2 µM

CC(=O)Oc1ccc2c(C)cc(=O)oc2c1
inactive: A549 > 100 µM | ACHN > 100 µM | DU-145 > 100 µM | HL-60 > 100 µM | HOP-62 > 100 µM | HOP-92 > 100 µM | HT-29 > 100 µM | KM12 > 100 µM | LOX IMVI > 100 µM | MDA-MB-435 > 100 µM | Malme-3M > 100 µM | NCI-H460 > 100 µM | NCI/ADR-RES > 100 µM | OVCAR-4 > 100 µM | RPMI-8226 > 100 µM | SF-268 > 100 µM | SK-OV-3 > 100 µM | SN12C > 100 µM | SW-620 > 100 µM | UO-31 > 100 µM

CCOP(=O)(O)C(C)(C)NC
inactive: A549 > 100 µM | ACHN > 100 µM | DU-145 > 100 µM | HL-60 > 100 µM | HOP-62 > 100 µM | HOP-92 > 100 µM | HT-29 > 100 µM | KM12 > 100 µM | LOX IMVI > 100 µM | MDA-MB-435 > 100 µM | Malme-3M > 100 µM | NCI-H460 > 100 µM | NCI/ADR-RES > 100 µM | OVCAR-4 > 100 µM | RPMI-8226 > 100 µM | SF-268 > 100 µM | SK-OV-3 > 100 µM | SN12C > 100 µM | SW-620 > 100 µM | UO-31 > 100 µM

CC1=C(C#N)C(C#N)(C#N)C(NN(C)C)C1 (configuration not stated)
inactive: A549 41.5 µM | ACHN 13.3 µM | DU-145 15.7 µM | HL-60 3.59 µM | HOP-62 16.7 µM | HOP-92 15.1 µM | HT-29 15.4 µM | KM12 16.6 µM | LOX IMVI 12.6 µM | MDA-MB-435 23.7 µM | Malme-3M 17.7 µM | NCI/ADR-RES 23.8 µM | OVCAR-4 30.7 µM | RPMI-8226 10.9 µM | SF-268 21.7 µM | SK-OV-3 > 100 µM | SN12C 14.1 µM | SW-620 17.3 µM | UO-31 13.5 µM

CN1c2ccccc2C(=O)NC12CCNCC2
inactive: A549 > 100 µM | ACHN > 100 µM | DU-145 > 100 µM | HL-60 > 100 µM | HOP-62 > 100 µM | HOP-92 > 100 µM | HT-29 > 100 µM | KM12 > 100 µM | LOX IMVI > 100 µM | MDA-MB-435 > 100 µM | Malme-3M > 100 µM | NCI-H460 > 100 µM | NCI/ADR-RES > 100 µM | OVCAR-4 > 100 µM | RPMI-8226 > 100 µM | SF-268 > 100 µM | SK-OV-3 > 100 µM | SW-620 > 100 µM | UO-31 > 100 µM

Source: ChEMBL document CHEMBL1201862, “PubChem BioAssay data set” (2004)
